Laboratory results from patent publication US8754226B2, “Piperidinyl-substituted lactams as GPR119 modulators” (Array BioPharma Inc., priority 2010, dated 2014).

Tested on: modified version of the GPR119 receptor (94% identity to human receptor)
Assay: cAMP production assay (LANCE cAMP kit, TR-FRET) in HEK-293 cells
Format: cell-based
Settings: for cAMP production in HEK-293 cells: HEK-293 cells stably expressing modified GPR119, test compounds 0.2 nM to 10 μM, one-hour incubation at ambient temperature; for Fold over baseline: increase in cAMP relative to basal levels, agonist activity if 1.5-fold or greater
Experimental: The assay utilized HEK-293 cells that stably express a modified version of the GPR119 receptor (94% identity to human receptor), under the control of a CMV promoter containing a tet-on element for tetracycline-inducible expression. GPR119 agonist-induced cyclic AMP (cAMP) production was measured in this cell line using the LANCE cAMP kit (Perkin Elmer, Waltham, Mass.). To generate a working stock of cells for the assay, cells were treated overnight with 1 μg/mL doxycycline at 37° C. in the presence of 5% CO2 to induce receptor expression. Cells were then harvested by enzymatic dissociation with 0.05% trypsin, resuspended in freezing medium (DMEM growth medium with 10% each of fetal bovine serum and DMSO), aliquoted and frozen at −80° C. On the day of the assay, frozen cells were thawed, washed 1× in PBS and resuspended in Hank's buffered salt solution (HBSS) containing 5 mM HEPES, 0.1% BSA and Alexa Fluor 647-conjugated anti-cAMP antibody (diluted 1:100). The cell suspension was then transferred to a Proxiplate Plus white 384-well assay plate (Perkin-Elmer) at 2000 cells/well. Test compounds at final concentrations ranging from 0.2 nM to 10 μM were added to the assay plate, followed by a one-hour incubation at ambient temperature (volume=10 μL/well). DMSO concentration was held constant at 0.5%. After incubation with test compounds, 10 μL of a detergent buffer containing a biotinylated cAMP/Europium-conjugated streptavidin complex (Europium-labeled cAMP tracer) were added to each well on the assay plate, followed by a 2-hour incubation at ambient temperature. During this incubation cAMP released from lysed cells competes with the Europium-labeled cAMP tracer for binding to the Alexa Fluor 647-conjugated antibody. […] Cellular cAMP levels were then determined by interpolation of raw signal data using a cAMP standard curve. Compounds were determined to have agonist activity if they stimulated a 1.5-fold or greater increase in cAMP relative to basal levels.

Compound | cAMP production in HEK-293 cells | Fold over baseline
CS(=O)(=O)c1ccc(N[C@H]2CCN(C3CCN(c4ncc(-c5cn[nH]c5)cn4)CC3)C2=O)c(F)c1 [Example 31, (S)-1-(1-(5-(1H-pyrazol-4-yl)pyrimidin-2-yl)piperidin-4-yl)-3-(2-fluoro-4-(methylsulfonyl)phenylamino)pyrrolidin-2-one] | 14.5 nmol | 2.9
CCS(=O)(=O)c1ccc(N[C@H]2CCN(C3CCN(c4ncc(Cl)cc4C#N)CC3)C2=O)cn1 [Example 129, (S)-5-chloro-2-(4-(3-(6-(ethylsulfonyl)pyridin-3-ylamino)-2-oxopyrrolidin-1-yl)piperidin-1-yl)nicotinonitrile] | 28.4 nmol | 2.1
CCS(=O)(=O)c1ccc(N[C@H]2CCN(C3CCN(c4cnc(Cl)cn4)CC3)C2=O)c(F)c1 [Example 17, (S)-1-(1-(5-chloropyrazin-2-yl)piperidin-4-yl)-3-(4-(ethylsulfonyl)-2-fluorophenylamino)pyrrolidin-2-one] | 107.3 nmol | 5.3
N#Cc1ccc(N[C@H]2CCN(C3CCN(c4ncc(C(F)(F)F)cc4Cl)CC3)C2=O)nn1 [Example 150, (S)-6-(1-(1-(3-chloro-5-(trifluoromethyl)pyridin-2-yl)piperidin-4-yl)-2-oxopyrrolidin-3-ylamino)pyridazine-3-carbonitrile] | 17.1 nmol | 3.4
CCc1cnc(N2CCC(N3CC[C@H](Oc4cc(C)c(C#N)cc4F)C3=O)CC2)nc1 [Example 98, (S)-4-(1-(1-(5-ethylpyrimidin-2-yl)piperidin-4-yl)-2-oxopyrrolidin-3-yloxy)-5-fluoro-2-methylbenzonitrile] | 31.2 nmol | 3.5
CC(C)c1cnc(N2CCC(N3CCC(Oc4cc(F)c(S(C)(=O)=O)cc4F)C3=O)CC2)nc1 (stereo not drawn) [Example 86, 3-(2,5-difluoro-4-(methylsulfonyl)phenoxy)-1-(1-(5-isopropylpyrimidin-2-yl)piperidin-4-yl)pyrrolidin-2-one] | 5.9 nmol | 1.9
O=C(c1ccc(O[C@H]2CCN(C3CCN(c4ncc(Cl)cc4F)CC3)C2=O)cn1)N1CCCC1 [Example 148, (S)-1-(1-(5-chloro-3-fluoropyridin-2-yl)piperidin-4-yl)-3-(6-(pyrrolidine-1-carbonyl)pyridin-3-yloxy)pyrrolidin-2-one] | 14.4 nmol | 2.4
CS(=O)(=O)c1ccc(N[C@H]2CCN(C3CCN(c4ncc(C(F)(F)F)cc4F)CC3)C2=O)c(F)c1 [Example 114, (S)-3-(2-fluoro-4-(methylsulfonyl)phenyl-amino)-1-(1-(3-fluoro-5-(trifluoromethyl)pyridin-2-yl)piperidin-4-yl)pyrrolidin-2-one] | 17.7 nmol | 3.8
Cc1cnc(N2CCC(N3CC[C@H](Nc4ccc(S(C)(=O)=O)cc4F)C3=O)CC2)c(C#N)n1 [Example 134, (S)-3-(4-(3-(2-fluoro-4-(methylsulfonyl)phenyl-amino)-2-oxopyrrolidin-1-yl)piperidin-1-yl)-6-methylpyrazine-2-carbonitrile] | 35.7 nmol | 2.7
CCc1cnc(N2CCC(N3CCC[C@H](Nc4ncc(C(F)(F)F)cc4Cl)C3=O)CC2)nc1 [Example 76, (S)-3-(3-chloro-5-(trifluoromethyl)pyridin-2-ylamino)-1′-(5-ethylpyrimidin-2-yl)-[1,4′-bipiperidin]-2-one] | 5.9 nmol | 1.9
CS(=O)(=O)c1ccc(N[C@H]2CCN(C3CCN(c4ncc(Cl)nc4Cl)CC3)C2=O)cn1 [Example 161, (S)-1-(1-(3,5-dichloropyrazin-2-yl)piperidin-4-yl)-3-(6-(methylsulfonyl)pyridin-3-ylamino)pyrrolidin-2-one] | 13.8 nmol | 3.6
CS(=O)(=O)c1ccc(O[C@H]2CCN(C3CCN(c4cnc(Cl)cn4)CC3)C2=O)c(F)c1 [Example 91, (S)-1-(1-(5-chloropyrazin-2-yl)piperidin-4-yl)-3-(2-fluoro-4-(methylsulfonyl)phenoxy)pyrrolidin-2-one] | 38.0 nmol | 3.9
CS(=O)(=O)c1cc(F)c(N[C@H]2CCN(C3CCN(c4ncc(Cl)cc4Cl)CC3)C2=O)cc1F [Example 113, (S)-1-(1-(3,5-dichloropyridin-2-yl)piperidin-4-yl)-3-(2,5-difluoro-4-(methylsulfonyl)phenyl-amino)pyrrolidin-2-one] | 29.1 nmol | 2.1
CCc1cnc(N2CCC(N3CCCC[C@H](Nc4ccc(S(C)(=O)=O)cc4F)C3=O)CC2)nc1.Cl [Example 79] | 18.0 nmol | 3.8
CCc1cnc(N2CCC(N3CCC[C@H](Nc4ccc(S(C)(=O)=O)cc4C(F)(F)F)C3=O)CC2)nc1 [Example 55, (S)-1′-(5-ethylpyrimidin-2-yl)-3-(4-(methylsulfonyl)-2-(trifluoromethyl)phenylamino)-[1,4′-bipiperidin]-2-one] | 9.3 nmol | 2.6
Cc1cc(S(C)(=O)=O)ncc1N[C@H]1CCN(C2CCN(c3cnc(Cl)cn3)CC2)C1=O [Example 123, (S)-1-(1-(5-chloropyrazin-2-yl)piperidin-4-yl)-3-(4-methyl-6-(methylsulfonyl)pyridin-3-ylamino) pyrrolidin-2-one] | 15.8 nmol | 3.5
CCc1ccc(N2CCC(N3CCC(Nc4ccc(S(C)(=O)=O)cc4F)C3=O)CC2)nc1 (stereo not drawn) [Example 24, 1-(1-(5-ethylpyridin-2-yl)piperidin-4-yl)-3-(2-fluoro-4-(methylsulfonyl)phenylamino)pyrrolidin-2-one] | 24.8 nmol | 2.9
CS(=O)(=O)c1cc(F)c(N[C@H]2CCCCN(C3CCN(c4cncc(Cl)n4)CC3)C2=O)cc1F.Cl [Example 84, (S)-1-(1-(6-chloropyrazin-2-yl)piperidin-4-yl)-3-(2,5-difluoro-4-(methylsulfonyl)phenylamino)azepan-2-one hydrochloride] | 6.3 nmol | 1.8
CCc1cnc(N2CCC(N3CCC[C@H](Nc4cc(F)c(S(C)(=O)=O)cc4F)C3=O)CC2)cn1 [Example 59, (S)-3-(2,5-difluoro-4-(methylsulfonyl)phenylamino)-1′-(5-ethylpyrazin-2-yl)-[1,4′-bipiperidin]-2-one] | 22.6 nmol | 3.4
CS(=O)(=O)c1cc(F)c(N[C@H]2CCN(C3CCN(c4cnc(Cl)cn4)CC3)C2=O)cc1F [Example 3, (S)-1-(1-(5-chloropyrazin-2-yl)piperidin-4-yl)-3-(2,5-difluoro-4-(methylsulfonyl)phenylamino)pyrrolidin-2-one] | 23.2 nmol | 5.0
CS(=O)(=O)c1cc(F)c(N[C@H]2CCCN(C3CCN(c4ncc(I)cn4)CC3)C2=O)cc1F [Example 47, (S)-3-(2,5-difluoro-4-(methylsulfonyl)phen-ylamino)-1′-(5-iodopyrimidin-2-yl)-[1,4′-bipiperidin]-2-one] | 9.3 nmol | 2.0
